Measurements reported in patent US8663632B1, “Compositions and methods for selectively targeting cancer cells using a thiaminase compound” (University of Kentucky Research Foundation, priority 2008, dated 2014).

System: GRP78 and UPR pathway proteins in breast cancer cell lines
Assay: Immunoblot analysis of energy and UPR pathway proteins
Format: cell-based, human
Settings: tunicamycin 5 μg/ml, thapsigargin 1 μM; all four breast cancer cell lines
Protocol: Cells were treated with thiaminase or anti-cancer agent for the indicated times and washed with ice-cold PBS. Cells were lysed with a triple-detergent lysis buffer (50 mM Tris pH8.0, 150 mM NaCl, 1% NP-40, 0.5% DOC, 0.1% SDS, 0.02% sodium azide and protease inhibitors). Equal amounts of protein were loaded into each well and separated by 10% SDS-PAGE gel, followed by transfer onto nitrocellulose membranes. The membranes were blocked, incubated with the indicated primary antibodies at 4° C. overnight, and the appropriate horseradish peroxidase-conjugated secondary antibody was added for 1 hour at room temperature. Immunoblots were developed by use of the enhanced chemiluminescence (ECL) detection system (Pierce, Rockford, Ill.) according to the manufacturer's protocol and autoradiography. All of the primary antibodies were purchased from Cell Signaling Technologies (Danvers, MA). The secondary antibodies were purchased from Sigma (St. Louis, Mo.). An anti-β-actin antibody was used as a control for protein loading.

Row | Compound | GRP78 induction
1 | C/C=C(/C)C(=O)O[C@H]1C(C)=C2[C@H]([C@@H]1OC(=O)CCCCCCC)[C@@](C)(OC(C)=O)C[C@H](OC(=O)CCC)[C@@]1(O)[C@H]2OC(=O)[C@@]1(C)O [thapsigargin] | marked induction
2 | tunicamycin | marked induction
